Measured values published in ChEMBL document CHEMBL1141304, “Julichrome Q6 glucuronide, a monomeric subunit of the julimycin B-I complex from a terrestrial Streptomyces sp” (J Nat Prod, 2007).
Activity calls are given as the source filed them.

How the values were obtained:
Format in all cases: functional, organism-based
Desmodesmus subspicatus = assay: Antimicrobial activity against Scenedesmus subspicatus at 40 ug after 24 hrs by agar diffusion method
Chlorella vulgaris = assay: Antimicrobial activity against Chlorella vulgaris at 40 ug after 24 hrs by agar diffusion method
Escherichia coli = assay: Antimicrobial activity against Escherichia coli at 40 ug after 24 hrs by agar diffusion method
[1] = system: Streptomyces viridochromogenes; assay: Antimicrobial activity against Streptomyces viridochromogenes at 40 ug after 24 hrs by agar diffusion method
Candida albicans = assay: Antimicrobial activity against Candida albicans at 40 ug after 24 hrs by agar diffusion method
Chlorella sorokiniana = assay: Antimicrobial activity against Chlorella sorokiniana at 40 ug after 24 hrs by agar diffusion method
Staphylococcus aureus = assay: Antimicrobial activity against Staphylococcus aureus at 40 ug after 24 hrs by agar diffusion method
Bacillus subtilis = assay: Antimicrobial activity against Bacillus subtilis at 40 ug after 24 hrs by agar diffusion method

Measured: Activity

CC(=O)O[C@H](C)[C@@H]1c2cc3cccc(O[C@@H]4O[C@H](C(=O)O)[C@@H](O)[C@H](O)[C@H]4O)c3c(O)c2C(=O)C[C@]1(C)O
inactive: Desmodesmus subspicatus | Chlorella vulgaris | Escherichia coli | [1] | Candida albicans | Chlorella sorokiniana | Staphylococcus aureus | Bacillus subtilis
